In US20030143729A1 (Synaptic Pharmaceutical Corporation, priority 1992, published 2003):
Where two headings read alike, the source gives them in different places.

Experiments:
Type 1 astrocytes = assay: [3H]GABA uptake in Type 1 astrocyte cultures; type: cell-based, rat; details: read-out: IC50 for inhibition of [3H]GABA uptake, Type 1 astrocytes
Experimental: Preparation of primary rat astrocyte cell cultures: Primary glial cultures were established from newborn Sprague-Dawley rat brains. Brains minus cerebella were removed aseptically and carefully dissected free of meninges. […] The cells were dissociated by trituration through a serological pipette. Separate procedures were then used for the preparation of Type-1 and O-2A/Type-2 astrocyte cultures, as will now be described.
For the preparation of Type-1 astrocyte cultures, cells were plated onto uncoated 75 cm^2 flasks at low density (1 brain per 10 flasks, or approximately 8×10^4 cells/cm^2). The medium was changed the following day and twice a week thereafter. […] Cultures highly enriched in O-2A/Type-2 cells were prepared from mixed astrocyte cultures which consisted of a monolayer of Type 1 cells upon which rested large numbers of O-2A/Type 2 cells. […] The same brain cell suspensions as described above were plated at high density (1 brain per 75 cm^2 flask, or approximately 8×10^5 cells/cm^2) into flasks coated with poly-D-lysine (10 μg/ml). After 24 hours the medium was replaced and the cultures were subsequently fed twice a week. […] Complete medium was added to the flasks and the cell suspension was removed gently, care being taken to not disrupt the underlying Type 1 astrocyte monolayer. The cells were pelleted at low speed, resuspended in complete medium, and added to 24-well plates coated with poly-D-lysine (10 μg/ml). […] No attempt was made to distinguish or separate O-2A precursors from the more differentiated Type 2 astrocytes.

GAT-3 = target: T1, GAT-3 (Rattus norvegicus, UniProt P31647); assay: [3H]GABA uptake by COS cells transfected with GAT-3 (rB8b or K438-rB8b); type: cell-based
T1 sequence (P31647 1-627): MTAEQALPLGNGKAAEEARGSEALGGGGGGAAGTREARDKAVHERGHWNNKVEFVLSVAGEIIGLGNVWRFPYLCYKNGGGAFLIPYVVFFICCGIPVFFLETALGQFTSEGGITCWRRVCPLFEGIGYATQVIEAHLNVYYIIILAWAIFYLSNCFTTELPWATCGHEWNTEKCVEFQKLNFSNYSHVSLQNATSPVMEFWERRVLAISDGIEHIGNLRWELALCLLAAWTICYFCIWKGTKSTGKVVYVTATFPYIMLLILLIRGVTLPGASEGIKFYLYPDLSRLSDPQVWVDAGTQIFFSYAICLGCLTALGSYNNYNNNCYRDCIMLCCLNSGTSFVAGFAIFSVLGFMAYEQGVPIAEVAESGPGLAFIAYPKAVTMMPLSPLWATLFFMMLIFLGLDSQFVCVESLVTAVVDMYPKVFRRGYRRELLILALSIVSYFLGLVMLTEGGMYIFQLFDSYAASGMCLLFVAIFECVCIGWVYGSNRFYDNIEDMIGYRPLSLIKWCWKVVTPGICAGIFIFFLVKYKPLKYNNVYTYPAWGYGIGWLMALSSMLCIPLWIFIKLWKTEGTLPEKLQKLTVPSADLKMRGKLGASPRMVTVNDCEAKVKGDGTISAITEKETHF

rat GAT-1 = rat GAT-1 (Rattus norvegicus, UniProt P23978); assay: cell-based
Experimental: Cells grown in 24-well plates were washed 3× with HEPES-buffered saline (HBS, in mM: NaCl, 150; HEPES, 20; CaCl2, 1; glucose, 10; KCl, 5; MgCl2, 1; pH 7.4) and allowed to equilibrate on a 37° C. slide warmer. After 10 minutes the medium was removed and unlabeled drugs in HBS were added (450 μl/well). […] Plates were incubated at 37° C. for 10 minutes, then washed rapidly 3× with ice-cold HBS, using a 24-position plate washer (Brandel, Gaithersburg, Mass.; model PW-12). Cells were solubilized with 0.05% sodium deoxycholate/0.1N NaOH (0.25 ml/well), an aliquot neutralized with 1N HCl, and radioactivity was determined by scintillation counting. Protein was quantified in an aliquot of the solubilized cells using a BIO-RAD protein assay kit, according to the manufacturer's directions.
Lipophilic inhibitors were dissolved in DMSO.
Data Analysis: Competition curves were conducted in duplicate, using 10 concentrations of unlabeled drug.
COS cells grown in 75 cm^2 or 150 cm^2 flasks in DMEM with 10% bovine calf serum, 100 U/ml penicillin G, and 100 μg/ml streptomycin sulfate (37° C., 5% CO2) were transfected using DEAE-dextran. On the day following transfection the cells were split into 24-well assay plates coated with poly-D-lysine (10 μg/ml), and transport was measured 24 hours later.
After 10 minutes the medium was removed and unlabeled drugs in HBS were added (450 μl/well). […] Plates were incubated at 37° C. for 10 minutes, then washed rapidly 3× with ice-cold HBS, using a 24-position plate washer (Brandel, Gaithersburg, Mass.; model PW-12). Cells were solubilized with 0.05% sodium deoxycholate/0.1N NaOH (0.25 ml/well), an aliquot neutralized with 1N HCl, and radioactivity was determined by scintillation counting. Protein was quantified in an aliquot of the solubilized cells using a BIO-RAD protein assay kit, according to the manufacturer's directions.

hBGT-1 = target: T2, hBGT-1 (Homo sapiens, UniProt P48065); assay: [3H]GABA uptake, full competition curves at cloned hBGT-1 (transient transfection, COS cells); type: cell-based; parameters: expressed in transfected cells; host or cells: COS cells, transient (DEAE-dextran)
T2 sequence (P48065 1-614): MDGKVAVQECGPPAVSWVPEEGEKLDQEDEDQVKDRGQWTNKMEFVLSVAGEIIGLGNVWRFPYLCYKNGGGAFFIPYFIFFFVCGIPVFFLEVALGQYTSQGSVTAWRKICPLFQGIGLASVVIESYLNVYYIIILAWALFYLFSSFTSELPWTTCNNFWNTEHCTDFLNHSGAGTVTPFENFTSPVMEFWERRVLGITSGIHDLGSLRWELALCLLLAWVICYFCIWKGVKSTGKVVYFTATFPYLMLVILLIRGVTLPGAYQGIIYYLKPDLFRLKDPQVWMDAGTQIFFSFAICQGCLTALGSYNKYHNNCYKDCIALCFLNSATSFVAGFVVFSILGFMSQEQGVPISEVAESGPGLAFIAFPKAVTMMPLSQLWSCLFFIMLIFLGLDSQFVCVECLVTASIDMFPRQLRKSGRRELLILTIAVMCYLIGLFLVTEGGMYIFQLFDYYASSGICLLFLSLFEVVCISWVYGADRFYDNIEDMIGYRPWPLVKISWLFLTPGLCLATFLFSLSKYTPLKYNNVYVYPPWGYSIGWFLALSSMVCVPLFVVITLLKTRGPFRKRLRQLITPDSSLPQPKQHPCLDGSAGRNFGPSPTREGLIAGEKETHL

GAT-2 = target: T3, GAT-2 (Rattus norvegicus, UniProt P31646); assay: [3H]GABA uptake by COS cells transfected with GAT-2 (rB14b); type: cell-based
T3 construct: randomly primed GAT-2 full-length or GAT-3 truncated or full-length cDNA clones; expressed in transfected cells; host or cells: COS cells, transient, plasmid pEVJB-rB14b
T3 sequence (P31646 1-602): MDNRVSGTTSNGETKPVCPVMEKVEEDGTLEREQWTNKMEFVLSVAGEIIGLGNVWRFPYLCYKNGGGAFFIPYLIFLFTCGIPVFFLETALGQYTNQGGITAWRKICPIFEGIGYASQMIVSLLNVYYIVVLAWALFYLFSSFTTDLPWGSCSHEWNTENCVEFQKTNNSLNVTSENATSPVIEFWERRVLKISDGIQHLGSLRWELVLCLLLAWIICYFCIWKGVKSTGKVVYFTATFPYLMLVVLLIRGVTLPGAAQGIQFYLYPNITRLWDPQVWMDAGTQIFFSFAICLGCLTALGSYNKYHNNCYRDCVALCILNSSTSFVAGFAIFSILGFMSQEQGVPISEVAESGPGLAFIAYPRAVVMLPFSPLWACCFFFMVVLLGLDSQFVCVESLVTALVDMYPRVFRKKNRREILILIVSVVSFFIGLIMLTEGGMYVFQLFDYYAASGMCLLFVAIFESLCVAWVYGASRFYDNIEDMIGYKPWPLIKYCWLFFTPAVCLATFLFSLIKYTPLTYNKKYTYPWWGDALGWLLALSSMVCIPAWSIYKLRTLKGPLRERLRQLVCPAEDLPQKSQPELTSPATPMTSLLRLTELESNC

[1] = Rattus norvegicus, Astrocyte, 3 h
[2] = COS, read-out: % Inhibition of [3H]GABA uptake, GAT-3
[3] = COS, read-out: % Inhibition of [3H]GABA uptake, GAT-2
[4] = various concentrations of [3H]GABA, 30 seconds
[5] = read-out: IC50 for inhibition of [3H]GABA uptake, hBGT-1 (Table 8), full competition curves, 50 nM [3H]GABA
[6] = inhibitor 10 μM, 50 nM [3H]GABA, 10 minutes, 37° C.

Compound	IC50 (Type 1 astrocytes; [1]) [µM]	inhibition at 100 µM (GAT-3; [2]) [%]	IC50 (rat GAT-1) [µM]	IC50 (hBGT-1) [µM]	inhibition at 100 µM (GAT-2; [3]) [%]	IC50 (Type 1 astrocytes) [µM]	IC50 (hBGT-1; [5]) [µM]	other results
N[C@@H]1CCC[C@H](C(=O)O)C1 (relative stereo) [ACHC, cis-3-aminocyclohexanecarboxylic acid]	400 ± 200	0	132 ± 44	1070	3 ± 3			
NCCCC(=O)O [GABA, gamma-aminobutyric acid]								VMAX of GABA transport, COS/rB8b and/or COS/K438-rB8b (GAT-3) (GAT-3; [4]): 3.0±0.9 nmoles/mg protein; VMAX of GABA transport, COS/rB14b (GAT-2) (GAT-2; [4]): 2.5±1.2 nmoles/mg protein
N=C(N)NCCS(=O)(=O)O [GES, guanidinoethanesulfonic acid]						310 ± 60	4800	
NCC[C@H](N)C(=O)O [L-DABA, L-(2,4)diaminobutyric acid]	3460	4 ± 1	128 ± 12	528 ± 62	43 ± 8			
O=C(O)C1=CCCN(CCON=C(c2ccccc2)c2ccccc2)C1 [NNC-711]						2 ± 0.3	3570	
O=C(O)C1=CCCNC1 [guvacine]	23 ± 10		39 ± 6	1420				inhibition at 10 µM (GAT-3; [2]): 8 ± 5%; inhibition at 10 µM (GAT-2; [3]): 13 ± 1%
NCCS(=O)O [hypotaurine]	69 ± 30		1010	536 ± 41				
NCCS(=O)(=O)O [taurine, 2-aminoethanesulfonic acid]			32300	13200				
NCCC(=O)O [β-alanine]	100 ± 30	70 ± 1	2920 ± 197	1100	86 ± 1			
hydroxynipecotic acid [OH-nipecotic]						1610	3840	% Inhibition of [3H]GABA uptake, GAT-3 (GAT-3; [6]): 5 ± 2 (3) %; % Inhibition of [3H]GABA uptake, GAT-2 (GAT-2; [6]): 9 ± 7 (3) %
